Where only a bound is given, the exact number is not on record here.

These results are taken from patent publication US10166237B2, “Compounds and methods for inducing chondrogenesis” (The Scripps Research Institute, priority 2011, dated 2019).

The test system of assay [1] is human mesenchymal stem cells (hMSCs). Kind of assay: chondrogenic nodule formation by hMSCs (high throughput screen). Type of assay: cell-based. Conditions: Homo sapiens, Mesenchymal stem cells; first value of the cell (before the slash); read-out: CHONDROGENIC μM EC50. A digest of the protocol:
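Primary hMSCs (10^4/well) in serum-free DMEM exposed to compounds at 5 μM for 4 days. Chondrogenic nodules stained with Nile red (binds collagens) and counted by high-content imaging with 488 laser excitation. In 96-well follow-up, 50,000 cells/well treated 4 days, formalin-fixed, stained with 1 μg/ml Rhodamine B.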

The subject of assay [2] is primary bovine chondrocytes. Kind of assay: inhibition of cytokine-induced nitric oxide release (Greiss reaction). The following applies: Bos taurus, Chondrocyte; second value of the cell (after the slash); TNFα and oncostatin M, 48 hours; read-out: NO INHIBTION μM IC50. Format: cell-based. An excerpt:
(§1) In the screen, hMSCs were used as a surrogate to future targeting of the resident MSCs with the cartilage joint. It was in that setting upon which we identified PRO1. In a joint injury, the primary cell type a therapeutic would have contact with is the chondrocyte. Although cartilage or chondrocyte-targeted screening has not lead to the development of a successful drug modifying osteoarthritis drug (DMOAD) to date, it is believed that a stem cell-based therapeutic would protect and even repair the existing chondrocytes. Therefore, protection of the articular chondrocytes and cartilage from a mature bovine knee was assessed. PRO1 and its analogues were incubated with primary bovine chondrocytes or cartilage explants cultures grown in the presence of TNFα and oncostatin M to mimic the cytokine-induced damage that can occur during OA. In the presence of the cytokine cocktail, in vitro cultured primary chondrocytes released 4-5 fold more nitric oxide (NO) than the untreated chondrocytes (50 μM vs 10 μM) as measured by the Greiss reaction. In cells treated with the cytokine cocktail and PRO1, the small molecule could effectively block the release of NO by up to 70% FIG. 2C). Similarly, in ex vivo treated cartilage explants, cytokine-induced release of glycosaminoglycans (GAG) was reduced by up to 60% by PRO1 (FIG. 2D). Finally, hMSC were grown in pellet culture for 21 days.
(§2) Primary hMSCs were plated (10,000/well) in 384-well plates and cultured for 18 days. The cells were fixed with 4% formalin, permeabilized with triton (0.5%), digested with 0.5 mg/ml collagenase II to unwind the collagen fibrils, and then immunostained with an antibody recognizing type II collagen. DAPI (2 μg/ml) was added to visualize the nuclei. The chondrogenic nodules stained positive for type II collagen but lacked expression of type X collagen and osteocalcin, markers for chondrocyte hypertrophy and osteoblasts, respectively (not shown). 10,000 hMSCs (passages 3-5) were plated in Greiner 384-well low-bottom plates on day 1. The cells were allowed to adhere and stimulated for 48 hrs (days 2-3) with the indicated stimuli in MSC growth media (Millipore). The media was then removed and replaced with serum-free DMEM for an additional 16 days. This media was replenished on days 10 and 15 of the assay. Primary bovine chondrocytes were isolated from the articular surfaces from mature knees. After one week of culture, 8,500 cells were trypsinized and plated in Greiner 384-well white clear-bottom plates in growth media. […] 20 μl of the supernatant was mixed with 20 μl of the Greiss reagent and quantitated at 540 nm as described by the Promega kit instructions. Bovine cartilage explants (cut in circular explants in a 96 well plate) were cultured in the presence of 20 ng/ml TNFα and 10 ng/ml oncostatin M to induce GAG release for 72 hours (FIG. 2D). PRO1 was added at the indicated concentrations during the entire 72 hrs. […] Parafin sections were hydrated, incubated in low pH Antigen unmasking solution (Vector) at 90 C for 10 minutes, permeabilized with 0.1% collagenase II (only for the sections stained with type II collagen) for 10 minutes, blocked with CAS block for 10 minutes and then incubated with the primary antibody (type II collagen, aggrecan or Timp1) antibody (Abcam) overnight at 4 C. The antigens were visualized through standard ABC detection methods and developed with DAB. Representative of 3 sections stained/treatment group (independent experiments).

The test system of a further assay is hMSCs. The assay can be described thus: type II collagen expression in hMSC cultures (18 day assay). Type of assay: cell-based, human. Conditions: Homo sapiens. The protocol:
The chondrogenic differentiation event was initiated quickly even though a fully differentiated chondrocyte phenotype cannot be assessed prior to 14 days in culture. In an 18 day assay, compound treatment was only required for the first 48 hrs and followed by removal and replacement of the media (in the absence of stimuli, FIG. 2B). The promotion of chondrogenic differentiation was not altered or enhanced upon longer treatment with the stimuli (data not shown).
as §2

The subject of assay [3] is bovine cartilage explants. Kind of assay: cytokine-induced GAG release from cartilage explants ex vivo. Conditions: 1 μM (or less); compared with PRO1. Type of assay: cell-based.
Source text: as §1, with “In cells treated with the cytokine cocktail and PRO1, the small molecule could effectively block the release of NO by up to 70% FIG. 2C). Similarly, in ex vivo treated cartilage explants, cytokine-induced release of glycosaminoglycans (GAG) was reduced by up to 60% by PRO1 (FIG. 2D). Finally, hMSC were grown in pellet culture for 21 days.” left out
Primary hMSCs were plated (10,000/well) in 384-well plates and cultured for 18 days. […] 20 μl of the supernatant was mixed with 20 μl of the Greiss reagent and quantitated at 540 nm as described by the Promega kit instructions. […]

For orientation: EC50 means the concentration needed to bring the measured effect to its halfway point. The term IC50 denotes the concentration that gives 50% inhibition. Take `O=C(O)c1cc(O)ccc1C(=O)Nc1ccc(-c2ccccc2)cc1` [LK22b, 2-([1,1′-biphenyl]-4-ylcarbamoyl)-5-hydroxybenzoic acid]: the figures for the EC50 (in assay [1]; in the assay with hMSCs) were 0.0046 µM and > 10 µM, respectively. Moreover, in assay [2], the IC50 is > 10 µM.

For `O=C(O)c1ccccc1C(=O)Nc1ncc(-c2ccc(F)c(F)c2)s1` [LK35], the EC50 (in assay [1]; in the assay on hMSCs) was > 10 µM in each case. For the same molecule, the IC50 in assay [2] turned out to be 0.03 µM.

As to `C[C@@H](C(=O)Nc1ccc(Cl)cn1)N1Cc2ccccc2C1=O` [SMA-1*], the EC50 was > 10 µM in assay [1] and 0.37 µM in the assay with hMSCs. Moreover, the concentration for half-maximal inhibition (IC50) in assay [2] stood at 0.04 µM.

B1: TGFβ3: "known inducers of chondrogenic differentiation (TGFβ3, BMP7 or BMP2)" (protein, UniProt P10600 301-412, looked up)
Transforming growth factor …: ALDTNYCFRNLEENCCVRPLYIDFRQDLGWKWVHEPKGYYANFCSGPCPYLRSADTTHSTVLGLYNTLNPEASASPCCVPQDLEPLTILYYVGRTPKVEQLSNMVVKSCKCS
For the molecule B1, the chondro-protective activities result in assay [3] is “did not have the same degree of chondro-protective activities”.
